Results published in patent US20210179578A1, “OX1 ANTAGONISTS” (Heptares Therapeutics Limited, priority 2017, published 2021).

The molecules below were run against T1, human OX1 receptor (Homo sapiens, UniProt O43613) (assay: [3H]-radioligand binding assay, OX1). Conditions: [3H]-radioligand binding, human OX1 membranes; read-out: pKi average OX1 (converted).
T1 sequence (O43613 1-425): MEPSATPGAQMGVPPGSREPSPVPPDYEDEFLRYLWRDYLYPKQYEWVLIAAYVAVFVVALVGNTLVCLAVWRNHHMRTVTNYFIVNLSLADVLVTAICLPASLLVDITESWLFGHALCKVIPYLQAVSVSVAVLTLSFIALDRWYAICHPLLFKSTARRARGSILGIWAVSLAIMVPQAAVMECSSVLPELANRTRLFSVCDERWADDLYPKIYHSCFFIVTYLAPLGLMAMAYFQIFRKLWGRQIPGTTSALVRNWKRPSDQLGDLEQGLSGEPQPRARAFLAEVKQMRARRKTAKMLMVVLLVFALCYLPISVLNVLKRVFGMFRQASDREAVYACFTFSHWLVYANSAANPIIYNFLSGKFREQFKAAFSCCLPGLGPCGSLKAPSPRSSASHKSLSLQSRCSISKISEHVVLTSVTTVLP
Set-up: made in house; host or cells: SF21 insect cells (baculovirus; P0 virus made in SF9)
From the text: Cloning, Baculovirus generation, large-scale infection of SF21 cells and membrane preparation. Human OX1 or OX2 receptor were cloned into Invitrogen's (ThermoFisher Scientific, UK) Bac-to-Bac Baculovirus Expression System. P0 baculovirus was generated by transfecting SF9 cells with bacmid DNA using Cellfectin® II transfection reagent (ThermoFisher Scientific, UK, Catalog number 10362-100). Following P0 generation P1 virus was then generated ready for large scale infection and membrane preparation. SF21 cells were grown in expression medium ESF921 (Expression Systems, USA, catalog number 96-001-01) supplemented with 10% heat-inactivated FBS and 1% Pen/Strep and were infected at a cell density of 2.5×10^6 cells/mL and a multiplicity of infection of 1.0 for both human OX1R and OX2R. Incubation was carried out at over 48 h in a shaking incubator set at 27° C. The cell culture was then centrifuged at 2,500 rcf for 10 min at 4° C. The pellets were resuspended in cold PBS supplemented with Roche's Complete EDTA-free protease inhibitor cocktail tablets (Roche Applied Sciences, catalog number 05056489001), 1 mM PMSF and 1 mM EDTA. The resuspended cell paste was then centrifuged at 3,273 rcf for 12 min at 4° C. The supernatant was discarded and the pellet frozen at −80° C. The cell pellet from a 4 L culture was resuspended in buffer containing 50 mM HEPES pH 7.5, 150 mM NaCl, 8 Roche EDTA-Free protease inhibitor cocktail tablets and 1 mM PMSF. The suspension was left stirring at rt for 1 h and then homogenised for 90 s at 9,500 rpm using a VDI 25 (VWR, USA) homogeniser. The cells were then lysed using a Microfluidiser processor M-110L Pneumatic (Microfluidics, USA) at 60 PSI and membranes collected by ultracentrifugation at 204.7 k×g for 1 h. The supernatant was discarded and the pellet was resuspended and homogenised in 90 s at 9,500 rpm in 50 mL (25 mL for each 2 L culture) of buffer containing 50 mM Hepes pH 7.5, 150 mM NaCl, 3 Roche EDTA-free protease inhibitor cocktail tablets and 1 mM PMSF. The resulting membranes were then stored at −80° C.
[^3H]-radioligand binding assay. After thawing, membrane homogenates were resuspended in the binding buffer (8.5 mM HEPES, pH 7.4, 1.3 mM CaCl2, 1.2 mM MgSO4, 118 mM NaCl, 4.7 mM KCl, 4 mM NaHCO3, 1.2 mM KH2PO4, 11 mM glucose) to a final assay concentration of 6.4 μg (OX1) or 1.4 μg (OX2) protein per well. Saturation isotherms were determined by the addition of various concentrations (0-30 nM) of [^3H]-4-(2,6-difluoro-4-methoxybenzyl)-2-(5,6-dimethoxypyridin-3-yl)-2H-1,2,4-benzothiadiazin-3(4H)-one 1,1-dioxide (Christopher et al, MedChemComm., 2015, 6, 947-955) in a total reaction volume of 250 μL for 90 min at rt. At the end of the incubation, membranes were filtered onto a 96-well GF/B filter pre-incubated with 0.5% polyethylenimine, with a Tomtec cell harvester and washed 5 times with 0.5 mL distilled water. Non-specific binding (NSB) was measured in the presence of 3.33 μM [4-(5-chloro-1,3-benzoxazol-2-yl)-7-methyl-1,4-diazepan-1-yl][5-methyl-2-(2H-1,2,3-triazol-2-yl)phenyl]methanone (Wertz et al, Angew. Chem. Int. Ed., 2011, 50, 11511-11515). Radioactivity on the filter was counted (1 min) on a Microbeta radiometric plate counter (Perkin Elmer) after addition of 50 μL of scintillation fluid (LabLogic: Part #SG-BXX-14). […] IC50 values were derived from the inhibition curve and the equilibrium dissociation constant (Ki) values were calculated using the Cheng-Prusoff equation.

Ki | SMILES
0.794 nM | COc1ccc(CN2C(=O)N(c3cnc(OC)c(C(C)(F)F)c3)CCc3c(F)cccc32)c(F)c1 [Example 4, 3-[5-(1,1-difluoroethyl)-6-methoxypyridin-3-yl]-6-fluoro-1-(2-fluoro-4-methoxybenzyl)-1,3,4,5-tetrahydro-2H-1,3-benzodiazepin-2-one]
0.794 nM | COc1ncc(N2CCc3c(F)cccc3N(Cc3c(F)cc(Cl)cc3F)C2=O)cc1C(C)(F)F [Example 9, 1-(4-chloro-2,6-difluorobenzyl)-3-[5-(1,1-difluoroethyl)-6-methoxypyridin-3-yl]-6-fluoro-1,3,4,5-tetrahydro-2H-1,3-benzodiazepin-2-one]
0.398 nM | [2H]C([2H])([2H])Oc1cc(F)c(CN2C(=O)N(c3cnc(OC)c(C(C)(F)F)c3)CCc3c(F)cccc32)c(F)c1 [Example 6, 3-[5-(1,1-difluoroethyl)-6-methoxypyridin-3-yl]-1-{2,6-difluoro-4-[(^2H3)methyloxy]benzyl}-6-fluoro-1,3,4,5-tetrahydro-2H-1,3-benzodiazepin-2-one]
1.26 nM | Cc1cc(C)c(S(C)(=O)=O)cc1N1CCc2c(F)cccc2N(Cc2c(F)cc(Br)cc2F)C1=O [Example 31, 1-(4-bromo-2,6-difluorobenzyl)-3-[2,4-dimethyl-5-(methylsulfonyl)phenyl]-6-fluoro-1,3,4,5-tetrahydro-2H-1,3-benzodiazepin-2-one]
0.794 nM | COc1ncc(N2CCc3c(F)cccc3N(Cc3c(C)cc(Br)cc3F)C2=O)cc1S(C)(=O)=O [Example 17, 1-(4-bromo-2-fluoro-6-methylbenzyl)-6-fluoro-3-[6-methoxy-5-(methylsulfonyl)pyridin-3-yl]-1,3,4,5-tetrahydro-2H-1,3-benzodiazepin-2-one]
3.98 nM | COc1ncc(C2CCc3c(F)cccc3N(Cc3c(F)cc(Br)cc3F)C2=O)cc1S(C)(=O)=O (racemic) [Example 19, 1-(4-bromo-2,6-difluorobenzyl)-6-fluoro-3-[6-methoxy-5-(methylsulfonyl)pyridin-3-yl]-1,3,4,5-tetrahydro-2H-1-benzazepin-2-one]
1.58 nM | CCCc1cc(F)c(CN2C(=O)N(c3cnc(C)c(C(C)(F)F)c3)CCc3c(F)cccc32)c(F)c1 [Example 34, 3-[5-(1,1-difluoroethyl)-6-methylpyridin-3-yl]-1-(2,6-difluoro-4-propylbenzyl)-6-fluoro-1,3,4,5-tetrahydro-2H-1,3-benzodiazepin-2-one]
2 nM | Cc1ncc(C2CCc3c(F)cccc3N(Cc3c(F)cc(Br)cc3F)C2=O)cc1C(C)(F)F (single isomer, unassigned) [Example 35, 1-(4-bromo-2,6-difluorobenzyl)-3-[5-(1,1-difluoroethyl)-6-methylpyridin-3-yl]-6-fluoro-1,3,4,5-tetrahydro-2H-1-benzazepin-2-one]
1.26 nM | Cc1cc(C)c(S(C)(=O)=O)cc1N1CCc2ccccc2N(Cc2c(F)cc(OC(C)C)cc2F)C1=O [Example 30, 1-[2,6-difluoro-4-(propan-2-yloxy)benzyl]-3-[2,4-dimethyl-5-(methylsulfonyl)phenyl]-1,3,4,5-tetrahydro-2H-1,3-benzodiazepin-2-one]
0.631 nM | Cc1ncc(C2CCc3c(F)cccc3N(Cc3c(F)cc(Br)cc3F)C2=O)cc1C(C)(F)F (single isomer, unassigned) [Example 36, 1-(4-bromo-2,6-difluorobenzyl)-3-[5-(1,1-difluoroethyl)-6-methylpyridin-3-yl]-6-fluoro-1,3,4,5-tetrahydro-2H-1-benzazepin-2-one]
1.58 nM | Cc1ccc(N2CCc3c(F)cccc3N(Cc3c(F)cc(Br)cc3F)C2=O)cc1S(C)(=O)=O [Example 27, 1-(4-bromo-2,6-difluorobenzyl)-6-fluoro-3-[4-methyl-3-(methylsulfonyl)phenyl]-1,3,4,5-tetrahydro-2H-1,3-benzodiazepin-2-one]
1.58 nM | COc1cc(F)c(CN2C(=O)N(c3cc(S(C)(=O)=O)c(OC)nc3OC)CCc3c(F)cccc32)c(F)c1 [Example 25, 1-(2,6-difluoro-4-methoxybenzyl)-3-[2,6-dimethoxy-5-(methylsulfonyl)pyridin-3-yl]-6-fluoro-1,3,4,5-tetrahydro-2H-1,3-benzodiazepin-2-one]
0.631 nM | [2H]C([2H])([2H])Oc1ncc(N2CCc3c(F)cccc3N(Cc3c(F)cc(Br)cc3F)C2=O)cc1C(C)(F)F [Example 2, 1-(4-bromo-2,6-difluorobenzyl)-3-{5-(1,1-difluoroethyl)-6-[(^2H3)methyloxy]pyridin-3-yl}-6-fluoro-1,3,4,5-tetrahydro-2H-1,3-benzodiazepin-2-one]
0.398 nM | COc1cc(F)c(CN2C(=O)N(c3cnc(OC)c(C(C)(F)F)c3)CCc3c(F)cccc32)c(F)c1 [Example 8, 3-[5-(1,1-difluoroethyl)-6-methoxypyridin-3-yl]-1-(2,6-difluoro-4-methoxybenzyl)-6-fluoro-1,3,4,5-tetrahydro-2H-1,3-benzodiazepin-2-one]
1.26 nM | COc1ncc(N2CCc3c(F)cccc3N(Cc3c(F)cc(Br)cc3F)C2=O)cc1C(C)(F)F [Example 3, 1-(4-bromo-2,6-difluorobenzyl)-3-[5-(1,1-difluoroethyl)-6-methoxypyridin-3-yl]-6-fluoro-1,3,4,5-tetrahydro-2H-1,3-benzodiazepin-2-one]
1.26 nM | COc1ncc(N2CCc3c(F)cccc3N(Cc3ccc(Br)cc3F)C2=O)cc1C(C)(F)F [Example 10, 1-(4-bromo-2-fluorobenzyl)-3-[5-(1,1-difluoroethyl)-6-methoxypyridin-3-yl]-6-fluoro-1,3,4,5-tetrahydro-2H-1,3-benzodiazepin-2-one]
1 nM | COCc1cc(F)c(CN2C(=O)N(c3cc(C(C)(F)F)c(OC)nc3OC)CCc3c(F)cccc32)c(F)c1 [Example 24, 3-[5-(1,1-difluoroethyl)-2,6-dimethoxypyridin-3-yl]-1-[2,6-difluoro-4-(methoxymethyl)benzyl]-6-fluoro-1,3,4,5-tetrahydro-2H-1,3-benzodiazepin-2-one]
0.501 nM | COc1ncc(C2CCc3c(F)cccc3N(Cc3c(F)cc(Cl)cc3F)C2=O)cc1S(C)(=O)=O (single isomer, unassigned) [Example 22, 1-(4-chloro-2,6-difluorobenzyl)-6-fluoro-3-[6-methoxy-5-(methylsulfonyl)pyridin-3-yl]-1,3,4,5-tetrahydro-2H-1-benzazepin-2-one]
